{"source": "patent US11577092B2", "about": "“Phosphor-containing drug activator activatable by a monte carlo derived X-ray exposure, system containing the activator, and methods for use” (IMMUNOLIGHT, LLC, priority 2016, dated 2023)", "key": {"4T1-HER2 cells [1]": {"test_system": "4T1-HER2 cells", "experiment": "Methylene blue staining for cell viability post treatment", "type": "cell-based, murine", "details": "individual components; 1 Gy of 80 kVp x-rays; phosphor 25, 50, 100 μg/mL; UVADEX 10 uM 8-MOP", "description": "Methylene blue staining of viable 4T1-HER2 cells confirms that the device works well according to the target parameters identified above. A plate having six (6) wells is subjected to treatment. FIG. 11 is a photographic depiction showing of Methylene Blue stain for cell viability post treatment with X-ray, phosphors and UVADEX. One well (#1) is the control. One well (#2) has phosphor coated with EC and DLC (H100). One well (#3) has phosphor coated with EC (but no DLC). One well (#4) has drug UVADEX but no phosphors. One well (#5) has drug UVADEX and phosphors coated with EC and DLC. One well (#6) has drug UVADEX and phosphors coated with EC and no DLC.\nAll wells were exposed to the optimized x-ray initiation energy noted above. […] One added benefit to a dual coating is redundancy in safety of the treatment.\n(§1) Other assays were used to provide independent complimentary information on cell viability, e.g. Methylene blue staining and ATP-induced Luminescence imaging (Cell-Titer-Glo® Luminescence Cell Viability Assay). The luminescence imaging permitted investigation of the cytotoxicity of psoralen activated directly with a UV lamp, and in the absence of phosphors and x-ray radiation.\nFIGS. 13A-13D illustrates the efficacy of treatment in-vitro in 4T1-HER2 cells, utilizing a regimen of 1/10-diluted UVADEX (with equivalent of 10 uM 8-MOP), 50 μg/mL phosphor 1 Gy of 80 kVp x-rays. […]"}, "4T1-HER2 cells [2]": {"test_system": "4T1-HER2 cells", "experiment": "Cell viability by Guava flow cytometry (forward scattering) 48 hours after treatment", "type": "cell-based, murine", "details": "single component, 1 Gy of 80 kVp; UVADEX p=0.97, phosphors p=0.034", "method": "(§2) In-vitro studies were conducted on plated cells following standard procedures. Cells were maintained in RPMI-1640 supplemented with 10% fetal bovine serum and L-glutamine from GIBCO (Grand Island, N.Y.) growing in a humidified atmosphere of 5% CO2. After incubation, cells were trypsinized and plated evenly onto twelve 12-well plates for 24 hours. […] Each plate had 12 wells with three wells for each of the four treatment arms. The plates were then irradiated with x-rays by placing the plate at a known distance from the x-ray source (50 cm). After irradiation, the cells were incubated on the plate for 48 hours prior to performing flow cytometry. […]\n(§3) Two primary flow cytometry analyses were used, both determined at 48 hours after treatment. […] The first analysis evaluated was metabolic cell viability (herein referred to as cell viability) calculated from the number of whole cells per well as determined using forward scattering (FSC). […]\n(§4) FIGS. 13A-13D illustrates the efficacy of treatment in-vitro in 4T1-HER2 cells, utilizing a regimen of 1/10-diluted UVADEX (with equivalent of 10 uM 8-MOP), 50 μg/mL phosphor 1 Gy of 80 kVp x-rays. […] In FIG. 13A, cell viability after treatment (10 μM 8-MOP equivalent dilution of UVADEX, 50 μg/mL phosphor, 1 Gy of 80 kVp radiation) as determined by Guava flow cytome cytometry is depicted. […]"}, "4T1-HER2 cells [3]": {"test_system": "4T1-HER2 cells", "experiment": "Annexin V positivity by flow cytometry 48 hours after treatment", "type": "cell-based, murine", "details": "10 μM 8-MOP equivalent UVADEX, 50 μg/mL phosphor, 1 Gy of 80 kVp; UVADEX alone with or without x-ray", "method": "as §2, §3, §4"}, "[4]": {"test_system": "CT2A (murine malignant glioma), 4T1 and KP-B (sarcoma) cell lines", "experiment": "Cell-Titer-Glo Luminescence Cell Viability Assay on three cell lines", "type": "cell-based", "details": "psoralen 40 μM; UV light 0, 0.25, 0.5, 1.0 J/cm^2; N=4", "description": "Guava Annexin V flow cell cytometry was used to quantify cytotoxicity in 3 murine tumor cell lines (mammary −4T1; 4T1-HER2, 4T1 stably transfected with the human HER2 oncogene; glioma-CT2A; sarcoma KP-B). The mouse breast cancer cell line 4T1 was purchased from ATCC. 4T1-HER2 was provided by Dr. Michael Kershaw (Cancer Immunology Program, Peter MacCallum Cancer Centre, Victoria, Australia) and maintained in DMEM with penicillin/streptomycin and 10% FBS The Sarcoma KP-B cell lines were derived from primary tumors LSL-Kras; p53 Flox/Flox mice (45).\nas §1\nFIG. 14B presents data on CT2A malignant glioma cells, for a range of treatment parameters including variable x-ray dose (0, 0.67 and 1 Gy), phosphor concentration (50 or 100 μg) and psoralen concentration (8-MOP) at 10, 20 and 40 μM respectively. […] N=4 for each cell line at each UV light condition (0, 0.25, 0.5, 1.0 J/cm^2). The psoralen concentration was 40 μM. […]"}}}
{"smiles": "COc1c2occc2cc2ccc(=O)oc12", "note": "[UVADEX, 8-methoxypsoralen]", "values": [{"measurement": "effect in methyl blue staining", "setting": "4T1-HER2 cells [1]", "result": "little effect"}, {"measurement": "reduction in cell viability when radiation was added", "setting": "4T1-HER2 cells [2]", "result": "no significant effect"}, {"measurement": "increase in Annexin V staining (apoptotic activity)", "setting": "4T1-HER2 cells [3]", "result": "negligible apoptotic activity"}]}
{"smiles": "O=c1ccc2cc3ccoc3cc2o1", "note": "[psoralen]", "values": [{"measurement": "viable cells after UV light activated psoralen", "setting": "[4]", "result": "reduce viable cells in 3 cell lines"}]}
